Data: US11524935B2, “Methods for treating attention-deficit/hyperactivity disorder” (priority 2009, dated 2022)
Entries after “also recorded” stand apart in the source; their conditions may differ. Counter-ions that a name gives are not always drawn.

Tests used:
Long-Evans rats = assay: reversal of a visual discrimination (operant, Phase II reversal training); format: in vivo, rat
Procedure: Forty adult male Long-Evans rats (Charles River Laboratories, Wilmington, Mass.) approximately 250 g at the start of training were used as subjects in this study. Each shipment of rats went through five-day isolation prior to introduction to the general population. Rats were allowed a minimum of one additional week acclimation before operant training began.
Test compound was dissolved in sterile 0.9% saline at 3.0, 10.0, and 30.0 mg/mL, D-amphetamine, the reference compound, was also dissolved in 0.9% sterile saline at 1.0 mg/mL of the amphetamine salt.
After operant training began, rats were housed individually. Access to food was restricted to 12-20 grams per day to maintain animals at 85-90% free feeding body weight (relative to non-restricted rats). Rats were never deprived of water and continued gain weight while in the study.
After animals reached the training criteria on Phase I of the study, they were designated to one of the treatment groups; groups were matched for performance (days to criterion per in Phase I. The study was a mixed design (dose levels×repeated training sessions). The five dose levels were 1, 3, and 10 mg/kg test compound, 0.9 percent saline (vehicle) and 1.0 mg/kg d-amphetamine sulfate (reference compound) all delivered intraperitoneal (IP) at 1.0 mL/kg.
Animals were trained in a set of 10 operant testing chambers (Med Associates) containing two retractable response levers on the front wall. There were two stimulus lights in the chamber, one situated over each lever. The food magazine is located between the two response levers on the front wall and food delivery is signaled with a magazine light. Retrieval of the food pellet is detected by a photosensor within the food magazine. Dim illumination of the chamber is provided by a houselight over the center of the front wall.
Initially animals were shaped to press a lever for food. During this phase, both levers were extended into the chamber and the animal was rewarded with a 45 mg pellet for pressing a lever. The use of a side bias is prevented by retracting a lever once it exceeds five presses beyond the number of presses on the opposite lever. After […] consecutive days with 100 lever presses subjects were moved to Phase I of the study. In this phase, animals had to learn to press the lever beneath the illuminated signal light. On each trial, one of the signal lights (randomly chosen) was illuminated for 1.0 sec prior to presentation of the levers (30.0 sec limited hold). […] After either a correct or incorrect press, or an omission, the levers were retracted for the duration of the variable inter-trial-interval (ITT; 5 s+/−2 s). After stable responding (two consecutive days better than 80% correct) was established in this phase, animals began training in the drug administration portion of the experiment (Phase II).
In Phase II, animals were divided into five groups matched on percent accuracy and number of trials to criterion. Animals in each group were dosed with one of three doses of test compound ([…], IP), amphetamine (1.0 mg/kg, IP), or with the vehicle (saline) one hour prior to behavioral training. In Phase II the discrimination was reversed from that of Phase I such that animals were now rewarded for pressing the lever distal to the cue light. Animals were dosed daily approximately 60 min prior to training. Training continued until ad animals achieved two consecutive days above 80% correct on the new discrimination.
Data were analyzed using SPSS 12.0 for Windows (SSPS Inc., Chicago, Ill.). A mixed between groups, repeated measures ANOVA was conducted cm response accuracy data. A simple one-way ANOVA was conducted on the trials to criteria data from Phase II.

[1] = system: homozygous mutant dopamine transporter KO mice; assay: spontaneous activity in the open field, dopamine transporter KO mice; format: in vivo, mouse
Procedure: Male and female wild-type and homozygous mutant dopamine transporter KO mice (n−10 mice/genotype/agent) were tested for spontaneous activity in the open field following a single injection of the vehicle or compound. […] All drugs, were given in a volume of 5 mL/kg. Animals were returned to the open field for an additional 90 min. Spontaneous activity was evaluated in an automated Omnitech Digiscan apparatus (Accuscan Instruments, Columbus, Ohio). Activity was summated at 5 min intervals over the 2 h period of testing. Horizontal activity or locomotion was Measured in terms of toe total distance covered in cm, vertical activity or rearing was expressed in terms of the total numbers of vertical beam breaks, and stereotypy was quantified in terms of repetitive breaks of a given beam or beams with intervals of less than 1 sec. For the analyses, 10 WT and 10 KO mice were run in each of the treatment groups with approximately equal numbers of males and females assigned to each group. Data were analyzed by the Statistical Package for Social Sciences programs (version 11.0 for Windows; SPSS Science, Chicago, Ill.). The results lot each dependent variable were analyzed by repeated analyses of variance. (RMANOVA) for within subjects effects (group differences over time) and between-subjects effects (tests of main effects and interactions). Bonferroni corrected pair-wise comparisons were used as the post-hoc tests. A p<0.05 was considered significant.

[2] = system: extracellular monoaminergic transmitter levels; assay: in vivo brain microdialysis in prefrontal cortical and striatal brain areas of freely-moving rats; design: species or system rat
Procedure: Brain dialysates were collected from male Sprague-Dawey rats, which had been chronically implanted with cortical and striatal microdialysis guide cannulae and probes. The effects of different doses of test compound (10 and 30 mg/kg, administered subcutaneously) or vehicle (saline, 0.9% NaCl) were evaluated in three 50 baseline samples and eight consecutive 50 minute post-administration samples. The levels of dopamine, norepinephrine and serotonin for the two different brain areas were analyzed using HPLC/PCD analysis to determine any effects of the compound.
In FIGS. 4 and 5, results are expressed as the average percentage change compared to the individual's average baseline value. The arrow indicates the time of administration of test compound. The average value (and corresponding S.E.M.) are shown for each 50 minute sample period of n=12 rats for each group (NB: individual data points may be based on fewer samples owing to incidental loss of dialysate samples).

[3] = target: T1, human dopamine transporter (Homo sapiens, UniProt Q01959); assay: inhibition of [125I]RTI-55 binding to hDAT in HEK293 cell membranes; conditions: HEK-hDAT cells
T1 construct: expressed in transfected cells; host or cells: HEK293
T1 sequence (Q01959 whole entry): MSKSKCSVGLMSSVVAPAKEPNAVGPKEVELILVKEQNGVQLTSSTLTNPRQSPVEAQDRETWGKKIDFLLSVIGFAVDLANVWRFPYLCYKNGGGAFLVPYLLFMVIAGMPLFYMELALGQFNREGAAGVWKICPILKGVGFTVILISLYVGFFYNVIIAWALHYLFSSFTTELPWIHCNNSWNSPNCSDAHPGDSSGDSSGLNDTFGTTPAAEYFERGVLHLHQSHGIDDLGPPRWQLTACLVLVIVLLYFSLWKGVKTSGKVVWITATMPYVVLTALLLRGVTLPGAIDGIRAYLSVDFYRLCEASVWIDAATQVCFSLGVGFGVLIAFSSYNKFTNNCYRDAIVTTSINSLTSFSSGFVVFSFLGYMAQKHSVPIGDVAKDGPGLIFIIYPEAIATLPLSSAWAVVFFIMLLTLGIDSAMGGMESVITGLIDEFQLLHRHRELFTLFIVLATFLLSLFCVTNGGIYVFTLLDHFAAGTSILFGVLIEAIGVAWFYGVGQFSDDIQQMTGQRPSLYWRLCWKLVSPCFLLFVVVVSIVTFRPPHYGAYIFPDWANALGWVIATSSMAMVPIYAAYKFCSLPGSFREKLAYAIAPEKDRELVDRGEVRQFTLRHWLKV

[4] = target: T2, human serotonin transporter (Homo sapiens, UniProt P31645); assay: inhibition of [125I]RTI-55 binding to hSERT in HEK293 cell membranes; conditions: HEK-hSERT cells
T2 construct: expressed in transfected cells; host or cells: HEK293
T2 sequence (P31645 whole entry): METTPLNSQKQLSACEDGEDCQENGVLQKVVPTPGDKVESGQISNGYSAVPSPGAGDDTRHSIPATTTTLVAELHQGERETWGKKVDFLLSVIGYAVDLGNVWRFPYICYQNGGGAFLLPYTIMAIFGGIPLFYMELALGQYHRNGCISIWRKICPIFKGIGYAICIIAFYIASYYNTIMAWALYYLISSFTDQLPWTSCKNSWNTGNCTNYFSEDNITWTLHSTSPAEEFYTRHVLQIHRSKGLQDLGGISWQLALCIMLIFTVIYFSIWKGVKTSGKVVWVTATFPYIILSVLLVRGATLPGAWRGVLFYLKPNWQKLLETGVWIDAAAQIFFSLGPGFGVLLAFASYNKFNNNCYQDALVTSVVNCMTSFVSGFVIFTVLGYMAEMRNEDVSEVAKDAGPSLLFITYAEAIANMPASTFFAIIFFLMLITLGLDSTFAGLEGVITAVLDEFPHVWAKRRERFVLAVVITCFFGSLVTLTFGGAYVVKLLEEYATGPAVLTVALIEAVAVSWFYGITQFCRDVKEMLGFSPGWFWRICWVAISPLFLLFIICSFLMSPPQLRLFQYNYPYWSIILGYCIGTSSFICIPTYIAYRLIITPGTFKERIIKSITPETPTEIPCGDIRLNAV

[5] = target: T3, human norepinephrine transporter (Homo sapiens, UniProt P23975); format: binding; conditions: HEK-hNET cells
T3 construct: expressed in transfected cells; host or cells: HEK293
T3 sequence (P23975 whole entry): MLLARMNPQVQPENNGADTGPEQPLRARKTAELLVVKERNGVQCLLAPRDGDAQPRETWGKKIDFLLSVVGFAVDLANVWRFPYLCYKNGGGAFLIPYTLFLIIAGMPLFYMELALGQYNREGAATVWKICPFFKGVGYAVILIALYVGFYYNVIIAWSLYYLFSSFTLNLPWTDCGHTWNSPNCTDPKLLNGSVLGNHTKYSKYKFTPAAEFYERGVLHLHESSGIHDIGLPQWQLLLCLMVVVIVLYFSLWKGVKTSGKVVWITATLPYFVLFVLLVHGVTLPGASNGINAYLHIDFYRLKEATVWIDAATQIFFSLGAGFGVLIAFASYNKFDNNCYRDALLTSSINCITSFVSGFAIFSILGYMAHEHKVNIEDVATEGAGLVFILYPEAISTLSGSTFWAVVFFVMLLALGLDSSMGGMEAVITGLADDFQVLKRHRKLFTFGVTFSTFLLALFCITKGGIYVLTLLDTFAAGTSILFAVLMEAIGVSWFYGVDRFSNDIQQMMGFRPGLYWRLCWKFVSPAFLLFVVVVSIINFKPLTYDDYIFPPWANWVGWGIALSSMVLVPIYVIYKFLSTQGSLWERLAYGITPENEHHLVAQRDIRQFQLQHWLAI

wild-type mice = assay: spontaneous activity in the open field, wild-type mice; format: in vivo, mouse; conditions: 2 mg/kg SC, relative to vehicle controls
Procedure: Male and female wild-type and homozygous mutant dopamine transporter KO mice (n−10 mice/genotype/agent) were tested for spontaneous activity in the open field following a single injection of the vehicle or compound. Mice were placed into the open field for 30 min and administered SC the vehicle (sterile water) 2 mg/kg amphetamine, or three concentrations of the test compound (10, 30, 100 mg/kg). All drugs, were given in a volume of 5 mL/kg. Animals were returned to the open field for an additional 90 min. Spontaneous activity was evaluated in an automated Omnitech Digiscan apparatus (Accuscan Instruments, Columbus, Ohio). Activity was summated at 5 min intervals over the 2 h period of testing. Horizontal activity or locomotion was Measured in terms of toe total distance covered in cm, vertical activity or rearing was expressed in terms of the total numbers of vertical beam breaks, and stereotypy was quantified in terms of repetitive breaks of a given beam or beams with intervals of less than 1 sec. For the analyses, 10 WT and 10 KO mice were run in each of the treatment groups with approximately equal numbers of males and females assigned to each group. Data were analyzed by the Statistical Package for Social Sciences programs (version 11.0 for Windows; SPSS Science, Chicago, Ill.). The results lot each dependent variable were analyzed by repeated analyses of variance. […]

[6] = 1.0 mg/kg IP daily (d-amphetamine sulfate), vs vehicle

Row | SMILES | percent accuracy during Phase II reversal training (Long-Evans rats; 3.0 mg/kg IP daily, one hour prior to training, vs vehicle) | number of sessions (trials) required to reach criteria in Phase II (Long-Evans rats; 3.0 mg/kg IP daily, vs vehicle) | percent accuracy during Phase II reversal training (Long-Evans rats; 10.0 mg/kg IP daily, one hour prior to training) | number of sessions (trials) required to reach criteria in Phase II (Long-Evans rats; 10.0 mg/kg IP daily, vs vehicle) | percent accuracy during Phase II reversal training (Long-Evans rats; 30.0 mg/kg IP daily, one hour prior to training, vs vehicle) | number of sessions (trials) required to reach criteria in Phase II (Long-Evans rats; 30.0 mg/kg IP daily, vs vehicle) | locomotor, rearing and stereotypical activities ([1]; 100 mg/kg SC, compared with 2 mg/kg amphetamine) | locomotor, rearing and stereotypical activities ([1]; 10, 30, 100 mg/kg SC single injection, 90 min post-injection) | extracellular neurotransmitter levels (dopamine, norepinephrine, serotonin) ([2]; 10 mg/kg s.c., striatum and prefrontal cortex) | extracellular dopamine concentrations in the striatum ([2]; 30 mg/kg s.c.) | extracellular norepinephrine concentrations in the prefrontal cortex ([2]; 30 mg/kg s.c.) | other transmitters investigated (extracellular levels) ([2]; 30 mg/kg s.c.) | Hill coefficient [3] | Hill coefficient [4] | Hill coefficient [5] | locomotor, rearing and stereotypical activities (wild-type mice) | number of sessions (trials) required to reach criteria in Phase II (Long-Evans rats; [6]) | percent accuracy during Phase II reversal training (Long-Evans rats; [6]) | locomotor, rearing and stereotypical activities ([1]; 2 mg/kg SC, relative to vehicle controls)
1 | NC(=O)OC[C@H](N)Cc1ccccc1 [Test Compound, O-carbamoyl-(D)-phenylalaninol] | better accuracy scores | needed fewer trials to reach criterion levels of performance | lower than the 3.0, and 30.0 dose of test compound | did not differ from the vehicle group | better accuracy scores | needed fewer trials to reach criterion levels of performance | suppressed activities more efficiently than amphetamine | selectively reduced activity of the KO mice in a dose-dependent manner; also recorded: reduced activities in a dose-dependent fashion | no consistent effect | increases | increases | without having any significant affect | −0.77 ± 0.12 | −2.28 ± 0.05 | −1.45 ± 0.34 |  |  |  | 
2 | C[C@H](N)Cc1ccccc1 [amphetamine, d-amphetamine sulfate, reference compound] |  |  |  |  |  |  |  |  |  |  |  |  |  |  |  | increased locomotor, rearing and stereotypical activities | needed fewer trials to reach criterion levels of performance | better accuracy scores | decreased them in KO animals
